Broadly, the IC50 is the concentration at which inhibition is half-maximal. Read a high IC50 as a need for much substance.

Here are results for 34 compounds from patent US8993577B2, “Cyclopropyl amide derivatives” (Astrazeneca AB, priority 2009, dated 2015).

Some results are limits rather than exact numbers.

The target of the experiment is T1, human Histamine H3 receptor (hH3R) (Homo sapiens, UniProt Q9Y5N1).
T1 construct: expressed in transfected cells; host or cells: CHO (Chinese Hamster Ovary) cells; membranes
T1 sequence (Q9Y5N1 whole entry): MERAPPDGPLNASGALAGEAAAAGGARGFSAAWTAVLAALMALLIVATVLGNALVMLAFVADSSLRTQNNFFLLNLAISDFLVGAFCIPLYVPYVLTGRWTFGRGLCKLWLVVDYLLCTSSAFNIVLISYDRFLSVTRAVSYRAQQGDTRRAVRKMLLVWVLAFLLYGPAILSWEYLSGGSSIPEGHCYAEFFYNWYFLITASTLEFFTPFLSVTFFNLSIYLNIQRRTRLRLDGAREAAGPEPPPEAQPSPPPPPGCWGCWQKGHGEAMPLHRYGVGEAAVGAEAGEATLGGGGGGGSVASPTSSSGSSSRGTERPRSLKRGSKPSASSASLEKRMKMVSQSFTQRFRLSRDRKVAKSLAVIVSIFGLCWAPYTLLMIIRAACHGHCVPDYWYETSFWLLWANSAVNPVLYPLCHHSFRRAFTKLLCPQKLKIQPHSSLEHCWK
In words: GTPγS binding assay, antagonist activity in membranes of CHO cells expressing hH3R. The experiment is classed as biochemical. Conditions: membranes from CHO cells transfected with hH3R; (R)-α-methyl histamine 30 nM; [35S]GTPγS 0.2 nM. The text has this:
At least one compound of at least one formula described herein including the compounds described in the Examples hereof, when tested in at least one in vitro assay as substantially described below is active towards H3 receptors. Particularly, at least one compound described herein is an effective H3 receptor ligand. The in vitro activity may be related to in vivo activity but may not be linearly correlated with binding affinity. In the in vitro assay, a compound can be tested for its activity toward H3 receptors and IC50 obtained to determine the activity for a particular compound toward the H3 receptor.
Guanosine 5′-O-(3-[^35S]thio)triphosphate [GTPγS] Binding Assay
A GTPγS binding assay can be used to investigate antagonist properties of compounds in CHO cells (Chinese Hamster Ovary) transfected with human Histamine H3 receptor (hH3R). Membranes from CHO cells expressing hH3R (10 μg/well) are diluted in GTPγS assay buffer (20 mM Hepes, 10 mM MgCl2, 100 mM NaCl, pH 7.4) and preincubated with saponine (3 μg/ml), GDP (10 μM) and PVT-WGA SPA beads (125 μg/well) (Amersham) for 30 minutes. To determine antagonist activity, (R)-α-methyl histamine (30 nM) is added in 96 well SPA plate with [^35S]GTPγS (0.2 nM) and various concentration of H3R antagonists. The GTPγS binding assay is started with addition of the mixture membrane/saponine/GDP and incubated for 90 minutes at room temperature. The amount of bound [^35S]GTPγS is determined by using the MicroBeta Trilux counter (PerkinElmer). The percentage of [^35S]GTPγS bound in each sample is calculated as a percentage of that bound control sample incubated in absence of H3 antagonist. Duplicate determinations are obtained for each concentration, and the data are analyzed using ExcelFit4 to obtain the IC50.
Set forth in Table 1 hereinbelow for the Example 1-34 compounds are IC50 values that were generated in accordance with the GTPγS Binding Assay as essentially described hereinabove.
(In general: Binding of GTPγS marks nucleotide exchange on a G protein.)
As for “3-((trans)-2-((R)-4-cyclobutyl-2-methylpiperazine-1-carbonyl)cyclopropyl)benzamide, isomer 1 [Example 28]”, the IC50 worked out at 5.28 nM.
The compound “3-((trans)-2-((R)-4-cyclobutyl-2-methylpiperazine-1-carbonyl)cyclopropyl)benzamide, isomer 2 [Example 29]” gave an IC50 of 576 nM.
Under “3-((trans)-2-((S)-4-cyclobutyl-2-methylpiperazine-1-carbonyl)cyclopropyl)benzamide, isomer 1 [Example 31]” stands 6.96 nM; under “3-((trans)-2-((S)-4-cyclobutyl-2-methylpiperazine-1-carbonyl)cyclopropyl)benzamide, isomer 2 [Example 32]”, > 1110 nM.
For the compound “4-((trans)-2-((R)-4-cyclobutyl-2-methylpiperazine-1-carbonyl)cyclopropyl)benzamide, isomer 2 [Example 9]”, the concentration for half-maximal inhibition (IC50) is 121 nM. In other words, the sub-micromolar range.
Next, “4-((trans)-2-((R)-4-cyclobutyl-3-methylpiperazine-1-carbonyl)cyclopropyl)benzamide, isomer 1 [Example 21]”: 6.83 nM; “4-((trans)-2-((R)-4-cyclobutyl-3-methylpiperazine-1-carbonyl)cyclopropyl)benzamide, isomer 2 [Example 22]”: 1010 nM.
Under “4-((trans)-2-((S)-4-cyclobutyl-2-methylpiperazine-1-carbonyl)cyclopropyl)benzamide, isomer 1 [Example 11]” stands 5.77 nM; under “4-((trans)-2-((S)-4-cyclobutyl-2-methylpiperazine-1-carbonyl)cyclopropyl)benzamide, isomer 2 [Example 12]”, 1320 nM; under “4-((trans)-2-((S)-4-cyclobutyl-3-methylpiperazine-1-carbonyl)cyclopropyl)benzamide, isomer 1 [Example 18]”, 5.98 nM.
Under “4-((trans)-2-((S)-4-cyclobutyl-3-methylpiperazine-1-carbonyl)cyclopropyl)benzamide, isomer 2 [Example 19]” stands 1270 nM.
In turn, “4-(trans-2-(4-cyclobutyl-3,3-dimethylpiperazine-1-carbonyl)cyclopropyl)benzamide, enantiomer 1 [Example 25]” showed an IC50 of 12 nM.
Turning to “4-(trans-2-(4-cyclobutyl-3,3-dimethylpiperazine-1-carbonyl)cyclopropyl)benzamide, enantiomer 2 [Example 26]”, the IC50 was > 1110 nM.
Under “4-(trans-2-((R)-4-cyclobutyl-2-ethylpiperazine-1-carbonyl)cyclopropyl)benzamide, isomer 1 [Example 14]” stands 15.3 nM; under “4-(trans-2-((R)-4-cyclobutyl-2-ethylpiperazine-1-carbonyl)cyclopropyl)benzamide, isomer 2 [Example 15]”, 140 nM.
“4-(trans-2-((R)-4-isopropyl-2-methylpiperazine-1-carbonyl)cyclopropyl)benzamide, isomer 1 [Example 2]”: the IC50 is 5.66 nM.
Under “4-(trans-2-((R)-4-isopropyl-2-methylpiperazine-1-carbonyl)cyclopropyl)benzamide, isomer 2 [Example 3]” stands 326 nM; under “4-(trans-2-((S)-4-isopropyl-2-methylpiperazine-1-carbonyl)cyclopropyl)benzamide, isomer 1 [Example 5]”, 8.54 nM; under “4-(trans-2-((S)-4-isopropyl-2-methylpiperazine-1-carbonyl)cyclopropyl)benzamide, isomer 2 [Example 6]”, > 1110 nM.
Under `CC(C)N1CCN(C(=O)[C@H]2C[C@@H]2c2ccc(C(N)=O)cc2)[C@H](C)C1` (mixture of isomers) [Example 1, 4-(trans-2-((R)-4-isopropyl-2-methylpiperazine-1-carbonyl)cyclopropyl)benzamide, diastereomeric Mixture] stands 7.48 nM.
Under `CC(C)N1CCN(C(=O)[C@H]2C[C@@H]2c2ccc(C(N)=O)cc2)[C@@H](C)C1` (mixture of isomers) [Example 4, 4-(trans-2-((S)-4-isopropyl-2-methylpiperazine-1-carbonyl)cyclopropyl)benzamide, diastereomeric mixture] stands 13.5 nM; under `C[C@@H]1CN(C2CCC2)CCN1C(=O)[C@H]1C[C@@H]1c1ccc(C(N)=O)cc1` (mixture of isomers) [Example 7, 4-(trans-2-((R)-4-cyclobutyl-2-methylpiperazine-1-carbonyl)cyclopropyl)benzamide, diastereomeric mixture], 8.82 nM.
`C[C@H]1CN(C2CCC2)CCN1C(=O)[C@H]1C[C@@H]1c1ccc(C(N)=O)cc1` (mixture of isomers) [Example 10, 4-(trans-2-((S)-4-cyclobutyl-2-methylpiperazine-1-carbonyl)cyclopropyl)benzamide, diastereomeric mixture]: the IC50 came to 8.06 nM.
The compound `CC[C@@H]1CN(C2CCC2)CCN1C(=O)[C@H]1C[C@@H]1c1ccc(C(N)=O)cc1` (mixture of isomers) [Example 13, 4-(trans-2-((R)-4-cyclobutyl-2-ethylpiperazine-1-carbonyl)cyclopropyl)benzamide, diastereomeric mixture] returned an IC50 of 29.1 nM.
Next, `CC[C@H]1CN(C2CCC2)CCN1C(=O)[C@H]1C[C@@H]1c1ccc(C(N)=O)cc1` (mixture of isomers) [Example 16, 4-(trans-2-((S)-4-cyclobutyl-2-ethylpiperazine-1-carbonyl)cyclopropyl)benzamide, diastereomeric mixture]: > 1110 nM; `C[C@H]1CN(C(=O)[C@H]2C[C@@H]2c2ccc(C(N)=O)cc2)CCN1C1CCC1` (mixture of isomers) [Example 17, 4-(trans-2-((S)-4-cyclobutyl-3-methylpiperazine-1-carbonyl)cyclopropyl)benzamide, diastereomeric mixture]: 14.2 nM; `C[C@@H]1CN(C(=O)[C@H]2C[C@@H]2c2ccc(C(N)=O)cc2)CCN1C1CCC1` (mixture of isomers) [Example 20, 4-(trans-2-((R)-4-cyclobutyl-3-methylpiperazine-1-carbonyl)cyclopropyl)benzamide, diastereomeric mixture]: 8.74 nM.
Next, `C[C@@H]1CN(C2CCC2)CCN1C(=O)[C@H]1C[C@@H]1c1cccc(C(N)=O)c1` (mixture of isomers) [Example 27, 3-(trans-2-((R)-4-cyclobutyl-2-methylpiperazine-1-carbonyl)cyclopropyl)benzamide, diastereomeric mixture]: 12 nM; `C[C@H]1CN(C2CCC2)CCN1C(=O)[C@H]1C[C@@H]1c1cccc(C(N)=O)c1` (mixture of isomers) [Example 30, 3-(trans-2-((S)-4-cyclobutyl-2-methylpiperazine-1-carbonyl)cyclopropyl)benzamide, diastereomeric mixture]: 16.3 nM.
In turn, `C[C@H]1CN(C(=O)[C@H]2C[C@@H]2c2cccc(C(N)=O)c2)CCN1C1CCC1` (mixture of isomers) [Example 33, 3-(trans-2-((S)-4-cyclobutyl-3-methylpiperazine-1-carbonyl)cyclopropyl)benzamide, diastereomeric mixture] gave a half-maximal inhibitory concentration (IC50) of 41 nM.
Under `C[C@@H]1CN(C(=O)[C@H]2C[C@@H]2c2cccc(C(N)=O)c2)CCN1C1CCC1` (mixture of isomers) [Example 34, 3-(trans-2-((R)-4-cyclobutyl-3-methylpiperazine-1-carbonyl)cyclopropyl)benzamide, diastereomeric mixture] stands 51.8 nM; under `CC1(C)CN(C2CCC2)CCN1C(=O)[C@H]1C[C@@H]1c1ccc(C(N)=O)cc1` (racemic) [Example 23, 4-(trans-2-(4-cyclobutyl-2,2-dimethylpiperazine-1-carbonyl)cyclopropyl)benzamide, enantiomeric mixture], > 1110 nM.
Under `CC1(C)CN(C(=O)[C@H]2C[C@@H]2c2ccc(C(N)=O)cc2)CCN1C1CCC1` (racemic) [Example 24, 4-(trans-2-(4-cyclobutyl-3,3-dimethylpiperazine-1-carbonyl)cyclopropyl)benzamide, enantiomeric mixture] stands 15.9 nM.
On to `C[C@@H]1CN(C2CCC2)CCN1C(=O)[C@H]1C[C@@H]1c1ccc(C(N)=O)cc1` [Example 8, 4-((trans)-2-((R)-4-cyclobutyl-2-methylpiperazine-1-carbonyl)cyclopropyl)benzamide, isomer 1], for which the IC50 is 4.94 nM.
